Data taken from the supplement of paper PMC10307832.

How the values were obtained:
Assay in all cases: relative viability (nuclei count vs DMSO), 5 days (fraction); higher = more cells survive
Ispinesib + Crizotinib = compound: Cc1ccc(C(=O)N(CCCN)[C@@H](c2nc3cc(Cl)ccc3c(=O)n2Cc2ccccc2)C(C)C)cc1 [Ispinesib] + C[C@@H](Oc1cc(-c2cnn(C3CCNCC3)c2)cnc1N)c1c(Cl)ccc(F)c1Cl [Crizotinib] (partner 1 µM)
In short: (§1)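 Medians of duplicate plates are given as relative viability. That measure is the nuclei count in treated wells divided by the count in vehicle wells. Counts were taken on 4× images of lung cancer cell lines in 1536-well plates, 5 days after pin-tool dosing the day after seeding with one drug alone or a fixed anchor-drug dose plus five library-drug doses (not always all listed) in √10 steps.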

Linsitinib + Dasatinib = compound: C[C@]1(O)C[C@@H](c2nc(-c3ccc4ccc(-c5ccccc5)nc4c3)c3c(N)nccn32)C1 [Linsitinib] + Cc1nc(Nc2ncc(C(=O)Nc3c(C)cccc3Cl)s2)cc(N2CCN(CCO)CC2)n1 [Dasatinib] (partner 0.075 µM)
In short: as §1

Ispinesib + Foretinib = compound: Cc1ccc(C(=O)N(CCCN)[C@@H](c2nc3cc(Cl)ccc3c(=O)n2Cc2ccccc2)C(C)C)cc1 [Ispinesib] + COc1cc2c(Oc3ccc(NC(=O)C4(C(=O)Nc5ccc(F)cc5)CC4)cc3F)ccnc2cc1OCCCN1CCOCC1 [Foretinib] (partner 0.25 µM)
In short: as §1

Ispinesib + Pictilisib = compound: Cc1ccc(C(=O)N(CCCN)[C@@H](c2nc3cc(Cl)ccc3c(=O)n2Cc2ccccc2)C(C)C)cc1 [Ispinesib] + CS(=O)(=O)N1CCN(Cc2cc3nc(-c4cccc5[nH]ncc45)nc(N4CCOCC4)c3s2)CC1 [Pictilisib] (partner 1 µM)
In short: as §1

## UMC-11
Ispinesib + Crizotinib; first compound 0.001 µM
  relative viability: 0.547
Ispinesib + Crizotinib; first compound 0.003162 µM
  relative viability: 0.636
Ispinesib + Crizotinib; first compound 0.01 µM
  relative viability: 0.394
Ispinesib + Crizotinib; first compound 0.03162 µM
  relative viability: 0.192
Ispinesib + Crizotinib; first compound 0.1 µM
  relative viability: 0.376
Linsitinib + Dasatinib; first compound 0.01 µM
  relative viability: 0.462
Linsitinib + Dasatinib; first compound 0.03162 µM
  relative viability: 0.44
Linsitinib + Dasatinib; first compound 0.1 µM
  relative viability: 0.501
Linsitinib + Dasatinib; first compound 1 µM
  relative viability: 0.438
Ispinesib + Foretinib; first compound 0.001 µM
  relative viability: 1.03
Ispinesib + Foretinib; first compound 0.003162 µM
  relative viability: 0.995
Ispinesib + Foretinib; first compound 0.01 µM
  relative viability: 0.889
Ispinesib + Foretinib; first compound 0.03162 µM
  relative viability: 0.322
Ispinesib + Foretinib; first compound 0.1 µM
  relative viability: 0.233
Ispinesib + Pictilisib; first compound 0.001 µM
  relative viability: 0.653
Ispinesib + Pictilisib; first compound 0.003162 µM
  relative viability: 0.94
Ispinesib + Pictilisib; first compound 0.01 µM
  relative viability: 0.701
Ispinesib + Pictilisib; first compound 0.03162 µM
  relative viability: 0.2
Ispinesib + Pictilisib; first compound 0.1 µM
  relative viability: 0.263
